# Test results published in patent US7238376B2, “Black tea extract for prevention of disease” (Rutgers, The State University, priority 2000, dated 2007).
# Experiments:
# [1] = test system: Cox-2 gene expression; experiment: Cox-2 gene expression in Caco-2 cells (Northern blot / RT-PCR); type: cell-based, human; conditions: TF-2 effects seen at 50 to 100 μM
# Procedure: All three polyphenols were tested, TF-1, TF-2 and TF-3.
# The effect of TF-2 on the time course of Cox-2 gene expression in Caco-2 cells was then examined. Cox-2 mRNA was detectable in quiescent Caco-2 cells, consistent with the finding that colon cancer cells have elevated Cox-2 gene expression. Fresh serum induced a 2- to 4-fold increase in Cox-2 expression in Caco-2 cells as early as 4 hours after stimulation; this was expected because of the known stimulatory effects of serum factors.
# Confluent cultures were serum-deprived for 48 hours. Cells were then treated with 10% fresh fetal bovine serum in the presence or absence of the black tea extracts (10, 20, 40, 50, 80 or 100 μM) to initiate the progression of the cell cycle. Cells were harvested at either 4 or 12 hours for total RNA isolation. Total RNA samples were resolved by electrophoresis on 1% agarose-formaldehyde gel (6 μg per lane) and transferred onto a nylon membrane. Northern blot analysis was performed.
# Confluent cultures were first serum-deprived for 48 hours and then stimulated with 10% fresh fetal bovine serum in the absence or presence of black tea extracts. Cells were harvested and total RNA was prepared using a kit (QIAGEN, Chatsworth, Calif.). Total RNA (1 μg) from each cell sample was reverse transcribed into cDNA by incubating with RNase H reverse transcriptase (Gibco BRL, Grand Island, N.Y.) using oligo(dT)12-18 as primer. For PCR amplification, gene specific primers were designed. The sequences of the sense and antisense primers for various genes were: […]
# PCR was performed under conditions that allowed the amounts of PCR products to be proportional to the amounts of RNA input. The housekeeping gene, glyceraldehyde-3-phosphate dehydrogenase (GAPDH) was used as an internal control. The PCR products were analyzed by electrophoresis on 1% agarose gel containing 0.5 μg/ml ethidium bromide.
# [2] = test system: Caco-2 colorectal cancer cells, Hs578T breast cancer cells, and SV40-transformed W138 cells; conditions: Chen et al. 1998; cited from earlier work
# [3] = test system: normal counterparts; conditions: Chen et al. 1998; cited from earlier work
# [4] = test system: W138VA cells; experiment: proliferation assay, crystal violet staining; type: cell-based, human; conditions: 0, 1, 5, 10, 25 and 50 μM; 4 days
# Procedure: The effects of black tea polyphenols on proliferation of W138 and W138VA cells was examined. W138 diploid fibroblasts have a finite life span whereas the virally transformed W138VA cells are cancerous in nude mice. Both cell types were grown in 24 well plates in the presence of increasing doses of the theaflavin polyphenols, TF-1, TF-2 and TF-3 (0, 1, 5, 10, 25 and 50 μM). Viable cells were stained with crystal violet 4 days after plating. A decrease in staining intensity relative to the untreated control cells were indicative of growth inhibition by the polyphenol compound. Of the three theaflavin polyphenols tested, only TF-2 had significant effects on cells growth. […] The IC50 value for TF-2 and growth inhibition of W138VA cells was estimated to be 3 μM.
# Normal human W138 (cell strain AG06814E, PDL=16) and the SV40 virally transformed W138 cells (cell strain AG07217) were obtained from Coriell Institute for Medical Research (Camden, N.J.). Human colon cancer cells, Caco-2 (ATCC #HTB-37) and the matched normal colon cells CCD-33Co (ATCC #CRL-1539) were obtained from the American Type Culture Collection (Rockville, Md.). Cells were cultured in Dulbecco's medium containing 10% fetal bovine serum at 37° C., 5% CO2. […] Cell growth was measured by counting viable cells using the Trypan Blue exclusion method. […] Proliferation was monitored by crystal-violet staining. […]
# [5] = test system: human A431 carcinoma cells; conditions: compared with EGCG; Liang et al. 1999; cited from earlier work
# [6] = test system: EGF and PDGF receptors; conditions: compared with EGCG; Liang et al. 1999; cited from earlier work
# [7] = test system: human lymphoid leukemia cells and human stomach tumor cells; conditions: Hibasami et al. 1998; cited from earlier work
Molecule,Cox-2 gene expression in Caco-2 cells [1],growth of human tumor cells [2],growth of normal counterparts [3],differential growth inhibition of W138 versus W138VA cells [4],inhibiting the growth of human A431 carcinoma cells [5],reducing autophosphorylation of EGF and PDGF receptors [6],apoptosis in human lymphoid leukemia cells and human stomach tumor cells [7]
(−)epigallocatechin gallate [EGCG],suppressed Cox-2 gene expression it was not as potent as TF-2,inhibits growth,little or no inhibitory effect,–,–,–,–
"O=C(O[C@@H]1Cc2c(O)cc(O)cc2O[C@@H]1c1cc(O)c(=O)c2c(O)c(O)cc([C@H]3Oc4cc(O)cc(O)c4C[C@H]3OC(=O)c3cc(O)c(O)c(O)c3)c2c1)c1cc(O)c(O)c(O)c1 [TF-3, theaflavin-3,3′-digallate]",failed to affect Cox-2 gene expression,–,–,did not exhibit this differential growth inhibition,as potent as EGCG,as potent as EGCG,can induce apoptosis
"O=c1c(O)cc([C@H]2Oc3cc(O)cc(O)c3C[C@H]2O)cc2c([C@H]3Oc4cc(O)cc(O)c4C[C@H]3O)cc(O)c(O)c12 [TF-1, theaflavin]",failed to affect Cox-2 gene expression,–,–,did not exhibit this differential growth inhibition,–,–,can induce apoptosis
